In general, EC50 refers to the concentration at which the effect is half-maximal. In general, EC90 refers to the concentration at which the effect reaches the 90% level. Broadly, the inhibition is the change of the read-out against control, counted positive when it falls.

Molecules are shown by their SMILES. Bounds are passed on as bounds.

The test system of one data set is HBV e antigen (HBeAg). The data set can be described thus: HBeAg ELISA in HepAD38 cells (cccDNA-dependent marker). The conditions noted are these: Hepatitis B virus, HePAD38, 336 h. Type of data set: cell-based. Here is the method: Production of secreted HBeAg is predominantly cccDNA-dependent in HepAD38 cells and therefore can serve as a surrogate marker for cccDNA (Ladner, S. K., Otto, M. J., Barker, C. S., Zaifert, K., Wang, G. H., Guo, J. T., Seeger, C., King, R. W. Antimicrob Agents Chemother 1997, 41, 1715-1720; Zhou T, Guo H, Guo J T, Cuconati A, Mehta A, Block T M. Antiviral Res. 2006; 72 (2): 116-24.). The effect on the levels of cccDNA formation was assessed using a cell-based assay that measures HBV e antigen (HBeAg) as a cccDNA-dependent marker in the HepAD38 system. HepAD38 cells were seeded at 50,000 cells/well in collagen-coated 96-well plates with DMEM/F12 medium (Life Technologies) supplemented with 10% heat-inactivated fetal bovine serum. Cells were treated with 0.3 μg/ml tetracycline as needed. Test compounds and controls were added to cells to a final concentration of 10 μM or in a dose response manner ranging from 0.001 to 10 μM. Medium and test compounds were replenished every 5 days in culture. Supernatants were harvested at day-14, clarified by centrifugation at 5000 rpm for 5 min, and stored at −70° C. until use. ELISA—Culture medium was diluted 1:15 in DMEM/F12 and the levels of HBeAg secreted in the culture medium were measured by using HBeAg ELISA kit (BioChain Institute Inc. Hayward, Calif.) according to the manufacturer's protocol. The concentration of compound that reduced levels of secreted HBeAg by 50% (EC50) was determined by linear regression.
(In general: In an ELISA, binding on a coated surface is turned into a signal by an enzyme label.)

Data set [1] has as its system mitochondrial DNA (COXII gene) in HepG2 cells. The data set can be described thus: Mitochondrial toxicity assay in HepG2 cells: mitochondrial DNA. Type of data set: cell-based. The note with it: for MtDNA (% of control): human, 14 day.
[2] abbreviates: Homo sapiens, HepG2, 336 h, read-out: % inhibition MtDNA.

In the case of `C#CCNC(=O)C(=O)c1c(C)c(C(=O)Nc2ccc(F)c(F)c2)n(C)c1C` [Compound 7a, 4-[(Propargylamino)(oxo)acetyl]-N-(3,4-difluorophenyl)-1,3,5-trimethyl-1H-pyrrole-2-carboxamide], in the data set with HBV e antigen (HBeAg) (read-out: Anti-HBeAg activity EC50), the EC50 was found to be 8 nM. For the same compound, the EC90 with HBV e antigen (HBeAg) (read-out: Anti-HBeAg activity EC90) came out at 580 nM. Further, in data set [1] (setting [2]), the inhibition at 25 µM is under 1% and the inhibition at 50 µM was 17.7%. Also, in data set [1] (25 μM), the “MtDNA (% of control)” value is 91.8 (80.2-105) % of control. For the same compound, in data set [1] (50 μM), the “MtDNA (% of control)” value is on record as 94.6 (73.8-121) % of control.

Values taken from US10752584B2 (EMORY UNIVERSITY, priority 2016, dated 2020).
